Source: paper PMC10932284 (International Journal of Molecular Sciences, 2024)
Like-named read-outs stand apart in the source and are kept apart here.

Assays:
[1] = target: MtCA3 (Mycobacterium tuberculosis, UniProt P96878); test: biochemical; conditions: for Selectivity Index (SI) hCA II/MtCA3: ratio of Ki values; for Ki: stopped-flow CO2 hydrase assay, mean from three assays
[2] = test system: M. tuberculosis strain susceptible to rifampicin and isoniazid; test: tuberculostatic activity assay, strain susceptible to rifampicin and isoniazid; assay type: cell-based, Mycobacterium tuberculosis; conditions: for number of M. tuberculosis colonies/standard inoculum volume (0.2 mL): 28 days, 37 °C; for growth inhibition of mycobacteria (in words): 1 µg/mL
[3] = target: T1, MtCA2 (Mycobacterium tuberculosis, UniProt P9WPJ9); test: stopped-flow CO2 hydrase assay, MtCA2; assay type: biochemical; conditions: for Selectivity Index (SI) hCA II/MtCA2: ratio of Ki values
T1 construct: made in house
T1 sequence (P9WPJ9 whole entry, looked up): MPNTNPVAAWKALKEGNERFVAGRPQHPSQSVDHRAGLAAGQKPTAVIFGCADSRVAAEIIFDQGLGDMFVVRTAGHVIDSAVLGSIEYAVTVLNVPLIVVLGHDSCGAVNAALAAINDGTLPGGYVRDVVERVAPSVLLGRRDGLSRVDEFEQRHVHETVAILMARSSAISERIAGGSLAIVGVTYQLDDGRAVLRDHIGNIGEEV
Method: BTDs 2a-2t were submitted to a stopped-flow CO2 hydrase kinetic assay to evaluate the inhibitory profile against the mycobacterial β-CAs MtCA1, MtCA2, MtCA3 (Table 1), in comparison to the inhibitory effect on hCA I and II, which were selected due to their abundance in the human organism and thus off-target in this study.
A stopped-flow instrument from Applied Photophysics was utilized to assess the inhibition of CA-catalyzed CO2 hydration activity. […] The assay employed 20 mM HEPES (pH 8.3) as a buffer and 20 mM Na2SO4 to maintain constant ionic strength. The investigation focused on the initial rates of the CA-catalyzed CO2 hydration reaction over a duration of 10–100 s. CO2 concentrations ranging from 1.7 to 17 mM were employed to determine kinetic parameters and inhibition constants. For each inhibitor, a minimum of six traces of the initial 5–10% of the reaction were utilized to determine the initial velocity. Uncatalyzed rates were determined in a similar manner and subtracted from the overall observed rates. Inhibitor stock solutions (0.1 mM) were initially prepared in distilled–deionized water, followed by subsequent dilutions up to 0.01 nM with the assay buffer. To allow for the formation of the E-I complex, inhibitor and enzyme solutions were preincubated together for 15 min at room temperature before the assay. The inhibition constants were derived through nonlinear least-squares methods using PRISM and the Cheng–Prusoff equation, as previously reported, representing the mean from at least three different determinations.

[4] = target: T2, MtCA1 (Mycobacterium tuberculosis, UniProt P9WPJ7); test: biochemical; conditions: for Selectivity Index (SI) hCA II/MtCA1: ratio of Ki values
T2 construct: made in house
T2 sequence (P9WPJ7 whole entry): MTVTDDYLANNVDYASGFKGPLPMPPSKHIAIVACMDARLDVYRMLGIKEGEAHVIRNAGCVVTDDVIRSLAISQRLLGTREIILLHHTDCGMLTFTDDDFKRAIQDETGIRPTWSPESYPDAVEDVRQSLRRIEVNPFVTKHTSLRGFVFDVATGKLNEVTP

[5] = target: hCA I; set-up: method as in PMID 31794211; conditions: stopped-flow CO2 hydrase assay; cited from earlier work
[6] = target: hCA II; set-up: method as in PMID 31794211; conditions: stopped-flow CO2 hydrase assay; cited from earlier work
[7] = 2 µg/mL in Lowenstein Jensen medium
[8] = stopped-flow CO2 hydrase assay, mean from three assays, read-out: Ki MtCA1
[9] = 1 µg/mL in Lowenstein Jensen medium

Sequence of MtCA3 (P96878 550-764 limits assumed): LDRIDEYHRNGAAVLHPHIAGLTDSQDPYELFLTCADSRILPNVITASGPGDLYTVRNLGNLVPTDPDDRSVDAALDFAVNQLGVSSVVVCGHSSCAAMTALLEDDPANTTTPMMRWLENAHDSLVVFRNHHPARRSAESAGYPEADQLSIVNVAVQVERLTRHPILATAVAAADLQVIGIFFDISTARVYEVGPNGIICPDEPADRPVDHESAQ

| Structure (SMILES) | Selectivity Index (SI) hCA II/MtCA3 [1] | Ki [1] [nM] | number of M. tuberculosis colonies/standard inoculum volume (0.2 mL) [2, 7] [colonies] | Ki [3] [nM] | Selectivity Index (SI) hCA II/MtCA2 [3] | Selectivity Index (SI) hCA II/MtCA1 [4] | Ki [4, 8] [nM] | Ki [5] [nM] | Ki [6] [nM] | growth inhibition of mycobacteria (in words) [2] | number of M. tuberculosis colonies/standard inoculum volume (0.2 mL) [2, 9] | Ki [4] [nM] |
| --- | --- | --- | --- | --- | --- | --- | --- | --- | --- | --- | --- | --- |
| O=C1Nc2ccccc2S(=O)(=O)N1 [2a] | 5.2 | 28.7 ± 2.1 | 0 | 68.6 ± 3.1 | 2.2 | 0.1 | 1680 ± 93 | 866 | 150 |  |  |  |
| Cc1cccc2c1NC(=O)NS2(=O)=O [2b] | 6.8 | 21.3 ± 1.7 |  | 58.5 ± 1.7 | 2.5 | 0.1 | 1460 ± 101 | 969 | 144 |  |  |  |
| Cc1ccc2c(c1)S(=O)(=O)NC(=O)N2 [2c] | 47.1 | 18.5 ± 1.6 | 0 | 41.3 ± 2 | 21.1 | 0.8 |  | 1070 | 872 | active | 0 colonies | 1050 ± 65 |
| Cc1cc(C)c2c(c1)S(=O)(=O)NC(=O)N2 [2d] |  | 15.1 ± 0.9 | 0 |  |  |  | 934 ± 78 | 1270 | 764 | active | 0 colonies |  |
| Cc1ccc(C)c2c1NC(=O)NS2(=O)=O [2e] | 1.4 | 1540 ± 91 |  | 2370 ± 167 | 0.9 | <0.2 | > 10000 | 2540 | 2190 |  |  |  |
| Cc1cc(C)c2c(c1)NC(=O)NS2(=O)=O [2f] | 1.3 | 2250 ± 168 |  | 4480 ± 277 | 0.7 | <0.3 | > 10000 | 1920 | 2940 |  |  |  |
| O=C1Nc2c(F)cccc2S(=O)(=O)N1 [2g] | 8.6 | 16.2 ± 1.1 |  | 62.9 ± 2.5 | 2.2 | 0.1 | 1290 ± 96 | 547 | 140 |  |  |  |
| O=C1Nc2ccc(F)cc2S(=O)(=O)N1 [2h] |  |  | 0 | 42.5 ± 1.6 |  |  | 1830 ± 137 | 1290 | 534 | active | 0 colonies |  |
| O=C1Nc2c(Cl)cccc2S(=O)(=O)N1 [2i] | 15.5 | 44.3 ± 2.9 |  | 214 ± 13 | 3.2 | 0.5 | 1500 ± 89 | 930 | 686 |  |  |  |
| O=C1Nc2ccc(Cl)cc2S(=O)(=O)N1 [2j] | 28.7 | 39.8 ± 2.2 |  | 67.1 ± 4.3 | 17.0 | 0.5 | 2460 ± 174 | 1860 | 1140 |  |  |  |
| O=C1Nc2c(Br)cccc2S(=O)(=O)N1 [2k] | 6.4 | 82.4 ± 4.9 |  | 458 ± 25 | 1.1 | 0.5 | 993 ± 33 | 2320 | 527 |  |  |  |
| O=C1Nc2ccc(Br)cc2S(=O)(=O)N1 [2l] | 26.2 | 90.1 ± 6.7 |  | 200 ± 14 | 11.8 | 0.8 | 2960 ± 213 | 4400 | 2360 |  |  |  |
| COc1ccc2c(c1)S(=O)(=O)NC(=O)N2 [2m] | 32.5 | 59.2 ± 4.2 |  | 152 ± 11 | 12.6 | 0.7 | 2760 ± 166 | 3810 | 1920 |  |  |  |
| O=C1Nc2c(ccc3ccccc23)S(=O)(=O)N1 [2n] | 4.0 | 120 ± 8 |  | 995 ± 35 | 0.5 | 0.5 | 1040 ± 41 | 2070 | 484 |  |  |  |
| CN1C(=O)NS(=O)(=O)c2ccccc21 [2o] | 26.2 | 32.5 ± 2.4 |  | 39.6 ± 2.1 | 21.5 | 1.5 | 556 ± 37 | 3410 | 853 |  |  |  |
| CN1C(=O)NS(=O)(=O)c2cc(Cl)ccc21 [2p] | 50.8 | 46 ± 3.3 |  | 135 ± 9 | 17.3 | 2.0 | 1180 ± 75 | > 10000 | 2340 |  |  |  |
| O=C1NS(=O)(=O)c2cccc3c2N1CC3 [2q] | 13.9 | 76.2 ± 5.6 |  | 599 ± 31 | 1.8 | 1.2 | 883 ± 24 | 6860 | 1060 |  |  |  |
| O=C1Nc2c(C(=O)O)cccc2S(=O)(=O)N1 [2r] | 37.4 | 65.4 ± 3.9 |  | 105 ± 6 | 23.2 | 0.7 | 3280 ± 204 | 5780 | 2450 |  |  |  |
| O=C1Nc2ccc(C(=O)O)cc2S(=O)(=O)N1 [2s] |  | 101 ± 5 |  | 223 ± 18 | 30.4 | 1.4 |  | > 10000 | 6780 |  |  | 4870 ± 315 |
| O=C1Nc2ccc(O)cc2S(=O)(=O)N1 [2t] | 66.3 | 45.6 ± 3.5 | 0 | 58.4 ± 4.1 | 51.8 | 1.3 | 2390 ± 126 | 1890 | 3020 |  | 30–100 colonies |  |
| CC(=O)Nc1nnc(S(N)(=O)=O)s1 [AAZ, acetazolamide, reference compound] |  |  | 0 |  |  |  |  |  |  | active | 0 colonies |  |
| CC(=O)/N=c1/sc(S(N)(=O)=O)nn1C [MTZ, reference compound] |  |  | 0 |  |  |  |  |  |  |  | 30–100 colonies |  |
